These results are taken from patent US3932625A, “Method and compound for parasite control” (Purdue Research Foundation, priority 1974, dated 1976).

Data set [1] in a line: Single-dose acute toxicity (lethal dose, 50% kill of test animals). As to conditions: rat, in vivo, rats, route not stated, read-out: LD50 (lethal dose as measured by a 50% kill of test animals). From the text:
Thus, 5-Thio-D-glucose is suitable for administering to animals and/or humans.

Data set [2] relates to transport of real D-glucose across a cell membrane. As to conditions: stated as known characteristic; cited from earlier work.

As for `OC[C@H]1SC(O)[C@H](O)[C@@H](O)[C@@H]1O` (stereo partly drawn) [5-Thio-D-glucose], in data set [1], the LD50 – broadly, the dose expected to kill half of the subjects tested – is 14000 mg/kg. In data set [2], the “inhibition of transport of real D-glucose across a cell membrane” value is “inhibiting the transport of real D-glucose across a cell membrane”.
